Test results from US11161848B2, “Purinones as ubiquitin-specific protease 1 inhibitors” (FORMA Therapeutics, Inc., priority 2015, dated 2021).
pIC50: −log10 of the molar value.

Target: USP1, construct USP1 (I-785, GG670, 671AA)/UAF1 (I-677)-Flag (Homo sapiens (Human), UniProt O94782, G670A/G671A)
Experiment: Ubiquitin-Rhodamine 110 assay for USP1 activity, follow-up IC50 format
Type: biochemical

USP1, construct USP1 (I-785, GG670, 671AA)/UAF1 (I-677)-Flag, sequence (O94782 whole entry G670A/G671A): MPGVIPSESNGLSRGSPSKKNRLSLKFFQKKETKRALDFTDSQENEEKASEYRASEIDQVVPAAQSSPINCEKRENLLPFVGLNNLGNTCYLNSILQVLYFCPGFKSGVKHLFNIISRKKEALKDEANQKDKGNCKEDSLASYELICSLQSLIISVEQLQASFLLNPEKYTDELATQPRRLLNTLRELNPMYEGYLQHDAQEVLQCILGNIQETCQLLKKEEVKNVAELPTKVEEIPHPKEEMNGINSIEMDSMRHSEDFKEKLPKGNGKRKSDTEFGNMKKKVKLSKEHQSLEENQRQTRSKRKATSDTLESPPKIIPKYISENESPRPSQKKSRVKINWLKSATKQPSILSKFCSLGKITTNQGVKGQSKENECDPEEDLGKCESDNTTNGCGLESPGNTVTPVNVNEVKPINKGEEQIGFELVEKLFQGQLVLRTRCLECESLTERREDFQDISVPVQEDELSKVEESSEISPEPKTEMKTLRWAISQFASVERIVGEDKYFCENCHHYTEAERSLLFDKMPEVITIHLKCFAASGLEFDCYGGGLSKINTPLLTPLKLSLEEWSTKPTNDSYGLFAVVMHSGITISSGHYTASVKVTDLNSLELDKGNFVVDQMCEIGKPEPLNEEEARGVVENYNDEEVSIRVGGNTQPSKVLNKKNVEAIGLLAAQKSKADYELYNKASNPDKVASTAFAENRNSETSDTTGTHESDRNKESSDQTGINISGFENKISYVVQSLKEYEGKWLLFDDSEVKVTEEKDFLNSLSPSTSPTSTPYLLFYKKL
USP1, construct USP1 (I-785, GG670, 671AA)/UAF1 (I-677)-Flag, sequence (Q8TAF3 whole entry partner): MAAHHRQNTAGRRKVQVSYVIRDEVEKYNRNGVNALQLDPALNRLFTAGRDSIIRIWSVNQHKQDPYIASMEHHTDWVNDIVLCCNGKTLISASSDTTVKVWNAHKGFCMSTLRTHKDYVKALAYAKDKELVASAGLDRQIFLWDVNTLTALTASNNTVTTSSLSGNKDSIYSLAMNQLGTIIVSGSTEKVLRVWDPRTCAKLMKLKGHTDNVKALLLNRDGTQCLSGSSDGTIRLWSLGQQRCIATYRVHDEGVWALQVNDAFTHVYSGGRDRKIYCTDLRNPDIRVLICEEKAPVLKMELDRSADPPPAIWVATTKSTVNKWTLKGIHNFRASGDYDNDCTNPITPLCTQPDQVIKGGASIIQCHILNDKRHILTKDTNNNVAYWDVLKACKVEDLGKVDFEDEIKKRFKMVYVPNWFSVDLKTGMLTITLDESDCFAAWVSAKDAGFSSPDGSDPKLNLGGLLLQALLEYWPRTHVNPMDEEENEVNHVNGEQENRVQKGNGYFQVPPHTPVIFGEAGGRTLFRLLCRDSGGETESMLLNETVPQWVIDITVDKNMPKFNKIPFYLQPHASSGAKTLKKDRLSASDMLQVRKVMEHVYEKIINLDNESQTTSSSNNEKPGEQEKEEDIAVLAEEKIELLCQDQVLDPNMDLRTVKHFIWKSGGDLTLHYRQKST

9-(4-(1H-pyrazol-1-yl)benzyl)-2-(2-cyclopropylphenyl)-7,9- [Compound I-94]
pIC50: > 7.30
